Laboratory results as given in patent US9987256B2, “CFTR corrector for the treatment of genetic disorders affecting striated muscle” (UNIVERSITA' DEGLI STUDI DI PADOVA, priority 2012, dated 2018).
Where a chain is given by its changes, count along the chain named.

Experiments:
Assay type in all cases: cell-based
[1] = target: T1, D97G mutant of alpha-sarcoglycan (Homo sapiens, UniProt Q16586, D97G); assay: Western blot rescue of D97G mutant of alpha-sarcoglycan in HEK293 cell model; settings: FIG. 7; HEK293, 24 hours; E 10 μM, H 15 μM, I 10 μM, Q 10 μM, F 10 μM, R 5 μM, S 15 μM, T 15 μM, A 2 μM; relative to wild type
T1 construct: expressed in transfected cells; host or cells: HEK293
T1 sequence (Q16586 24-387 D97G): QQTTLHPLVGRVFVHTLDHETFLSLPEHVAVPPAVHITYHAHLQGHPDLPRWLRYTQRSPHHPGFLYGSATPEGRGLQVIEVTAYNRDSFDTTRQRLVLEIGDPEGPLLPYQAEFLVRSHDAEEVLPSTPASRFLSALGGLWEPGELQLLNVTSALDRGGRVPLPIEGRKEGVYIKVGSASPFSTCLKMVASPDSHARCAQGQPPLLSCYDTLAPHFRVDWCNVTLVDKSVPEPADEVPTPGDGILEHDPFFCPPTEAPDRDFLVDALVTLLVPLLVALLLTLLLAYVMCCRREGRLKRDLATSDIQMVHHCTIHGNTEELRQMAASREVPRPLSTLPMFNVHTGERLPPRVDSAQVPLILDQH
Procedure: HEK293 cells expressing different α-SG mutants have been treated with the Compounds A, B, C, D, E, F, H, I, Q, R, S and T according to protocols developed in CF studies [Loo and Clarke 2011; Becq et al 2011, Pedemonte et al 2005; Wang et al 2006]. Concentration and time-dependent recovery of treated mutants have been evaluated by Western blotting. The proteasome inhibitor MG132, at the concentration of 10 μM, or DMSO at 1‰ concentration, have been used as positive and negative control, respectively.
In FIG. 7 is shown the content of α-sarcoglycan protein present in HEK cells transfected with the D97G mutant of α-SG treated for 24 hours with either Compound E 10 μM, Compound H 15 μM, Compound I 10 μM, Compound Q 10 μM, Compound F 10 μM, Compound R 5 μM, Compound S 15 μM, Compound T 15 μM, Compound A 2 μM, or DMSO at 1‰ concentration, used as negative control, are shown. Cells expressing the wild type form of α-sarcoglycan have been used for comparison. At the end of treatments, cells were lysed and total proteins resolved by SDS-PAGE. Western blotting has been performed by using α-SG specific antibody and β-actin specific antibody, used to normalize loaded proteins. The expression of α-SG in different samples has been determined by densitometric analysis of western blotting experiments and indicated as percentage of the protein present in cells expressing the wild type form of α-sarcoglycan. […] The compounds tested induce the recovery of the D97G mutant that in some cases reached the level present in HEK cells expressing the wild type protein.

[2] = target: T2, R98H mutant of alpha-sarcoglycan (Homo sapiens, UniProt Q16586, R98H); assay: Confocal immunofluorescence, membrane localization of R98H alpha-sarcoglycan in HEK293 cells; settings: HEK293, 24 hours
T2 construct: expressed in transfected cells; host or cells: HEK293
T2 sequence (Q16586 24-387 R98H): T1 sequence (Q16586 24-387 D97G) with G74D, R75H
Procedure: (§1) The cellular localization of either the V247M or R98H mutants, upon corrector treatments, has been verified by confocal immunofluorescence.
(§2) In the experiment reported in FIG. 8, HEK 293 cells expressing the R98H mutant have been treated for 24 hours with either Compound H (15 μM), Compound I (10 μM), Compound Q (10 μM), Compound A (2 μM) or the vehicle DMSO at 1% o concentration used as negative control. By comparison, cells expressing the wild type form of α-sarcoglycan have also been used. At the end of treatments, not permeabilized cells were incubated with a monoclonal antibody specific for an extracellular epitope of α-sarcoglycan in order to mark only the membrane resident α-sarcoglycan.
as §2, with “9,” for “8,”, “either two different concentration of” for “either”, “R (2.5 and 5” for “H (15”, “μM),” for “μM), Compound I (10 μM), Compound Q (10 μM), Compound A (2 μM)”, “1‰” for “1% o”

[3] = target: T3, V247M mutant of alpha-sarcoglycan (Homo sapiens, UniProt Q16586, V247M); assay: Confocal immunofluorescence, membrane localization of V247M alpha-sarcoglycan in HEK293 cells; settings: FIG. 2; HEK293, 24 hours; E 10 μM, D 10 μM, MG132 positive control; not permeabilized cells
T3 construct: expressed in transfected cells; host or cells: HEK 293
T3 sequence (Q16586 24-387 V247M): T1 sequence (Q16586 24-387 D97G) with G74D, V224M
Procedure: as §1
In the experiment reported in FIG. 2, HEK 293 cells expressing the V247M mutant have been treated for 24 hours with either Compound E (10 μM) or Compound D (10 μM), MG132 (positive control) or DMSO at 1‰ concentration (negative control). At the end of treatments, not permeabilized cells were incubated with a monoclonal antibody specific for an extracellular epitope of α-sarcoglycan in order to mark only the membrane resident α-sarcoglycan. By comparison, cells expressing the wild type form of α-sarcoglycan have also been used.

[4] = FIG. 8, H 15 μM, I 10 μM, Q 10 μM, A 2 μM

Compound | alpha-sarcoglycan protein level (western blot, densitometry), rescue of D97G mutant [1] | plasma membrane localization of R98H alpha-sarcoglycan mutant [2, 4] | plasma membrane localization of V247M alpha-sarcoglycan mutant [3] | plasma membrane localization of R98H alpha-sarcoglycan mutant ([2]; FIG. 9, Compound R 2.5 and 5 μM)
COc1ccc(Cl)cc1Nc1nc(-c2sc(NC(=O)C(C)(C)C)nc2C)cs1 [Compound A, N-(2-(5-chloro-2-methoxyphenylamino)-4′-methyl-4,5′-bithiazol-2′-yl)pivalamide] | promote the rescue | promote the correct membrane localization |  | 
COc1ccc(Cl)cc1Nc1nc(-c2sc(NC(=O)c3ccccc3)nc2C)cs1 [Compound E, N-[2-(5-Chloro-2-methoxy-phenylamino)-4′-methyl-[4,5′]bithiazolyl-2′-yl]-benzamide] | promote the rescue |  | promoted the correct plasma membrane localization | 
O=S(=O)(c1ccc(Cl)cc1)N1CCN(c2ccnc3cc(Cl)ccc23)CC1 [Compound F, 7-chloro-4-(4-(4-chlorophenylsulfonyl)piperazin-1-yl)quinoline] | promote the rescue |  |  | 
Cc1cc(C)c2c(C)cc(Nc3ccccc3)nc2c1 [Compound H, 4,5,7-trimethyl-N-phenylquinolin-2-amine] | promote the rescue | promote the correct membrane localization |  | 
Cc1cc(Nc2ccc(Br)cc2)nc2ccccc12 [Compound I, N-(4-bromophenyl)-4-methylquinolin-2-amine] | promote the rescue | promote the correct membrane localization |  | 
CC(=O)c1cccc(Nc2nc(-c3sc(NC(=O)c4ccccc4)nc3C)cs2)c1 [Compound Q, N-(2-(3-acetylphenylamino)-4′-methyl-4,5′-bithiazol-2′-yl)-benzamide] | promote the rescue | promote the correct membrane localization |  | 
COc1ccccc1Nc1nc(-c2sc(NC(=O)c3ccccc3)nc2C)cs1 [Compound R, N-(2-(2-methoxyphenylamino)-4′-methyl-4,5′-bithiazol-2′-yl)-benzamide] | promote the rescue |  |  | promoted the correct plasma-membrane localization
C=Cc1ccc(-c2csc(Nc3ccccc3)n2)cc1 [Compound S, N-phenyl-4-(4-vinylphenyl)thiazol-2-amine] | promote the rescue |  |  | 
COc1ccc2nc(Nc3nc(=O)c(C)c(C)[nH]3)nc(C)c2c1 [Compound T, 2-(6-methoxy-4-methylquinazolin-2-ylamino)-5,6-dimethylpyrimidin-4(1H)-one] | promote the rescue |  |  | 
